Target: T1, human cathepsin K (Homo sapiens, UniProt P43235)
T1 construct: The proform of cathepsin K was converted to mature cathepsin K by brief exposure to pH 4; made in house; host or cells: baculovirus; Trichoplusia ni High Five cells (virus raised in Sf-9)
T1 sequence (P43235 115-329): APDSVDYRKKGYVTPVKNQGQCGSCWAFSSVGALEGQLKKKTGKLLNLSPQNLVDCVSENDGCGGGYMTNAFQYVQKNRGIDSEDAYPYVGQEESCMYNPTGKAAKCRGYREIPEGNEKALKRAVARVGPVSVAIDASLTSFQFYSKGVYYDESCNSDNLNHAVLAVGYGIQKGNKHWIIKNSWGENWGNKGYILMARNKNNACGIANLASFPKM
Test: Cathepsin K inhibition assay, fluorogenic substrate Cbz-Phe-Arg-AMC, progress curve method
Assay type: biochemical
Conditions: Table 1; human recombinant enzyme, pH 5.5, 30° C., 10 μM substrate; read-out: hCat K Ki
Procedure: All assays for cathepsin K were carried out with human and rat recombinant enzyme. Assays for cathepsins S Et V were also carried out with human recombinant enzyme. Assays for human cathepsins B. H. and L were carried out with enzyme, purchased from Athens Research and Technology, Inc., prepared from human liver tissue. […] A stock substrate solution of Cbz-Phe-Arg-AMC was prepared at a concentration of 50 mM in dimethyl sulfoxide. This substrate was diluted into the assay for a final substrate concentration of 10 μM in the rat cathepsin K, human cathepsin K, and human cathepsin B assays; a final substrate concentration of 5 μM in the human cathepsin L assay; and a final substrate concentration of 2 μM in the human cathepsin V assay.
All assays contained 10% dimethyl sulfoxide. […] All assays were conducted at 30° C. Product fluorescence (excitation at 360 nm; emission at 440 nm, (except cathepsin H which used excitation at 340 nm; emission at 420 nm)) was monitored with a PerSeptive Biosystems Cytofluor II fluorescence plate reader. Product progress curves were generated over 2.3 h monitoring the formation of 7-amino-4-methylcoumarin product (or β-naphthalamide for cathepsin H).
Two liters of Spodoptera frugiperda (Sf-9) cells (ATCC) were grown in Grace's Supplemented medium (Life Technologies) supplemented with 2 g/L glucose, 10% a fetal bovine serum (HyClone) and 0.10% pluronic F-68 (Life Technologies). […] The cells continued to grow for 72 h post-infection, before the virus was harvested by centrifugation at 1400× g for 30 min.
One and one-half liters of Trichoplusia ni (T. ni) High Five (TM) cells [JRH Biosciences, Woodland, Calif. […] Media were separated from cells at a rate of 1 L/min using the Centritech 100 (TM) continuous-flow centrifuge (DuPont) operating at 200× g.
Protein Purification: Media (human and rat) were filtered through a Whatman 3 filter, and then loaded onto a 25 mL Poros HS II (26 mm×47 mm) cation exchange column equilibrated in 25 mM sodium acetate at pH 5.5 (equilibration buffer). The column was washed until the absorbance reached the baseline value, and then the protein was eluted with a linear gradient from 0-2 M sodium chloride in the equilibration buffer. Column fractions were analyzed by SDS-PAGE, N-terminal sequencing, and mass spectrometry. Fractions containing the proform of cathepsin K were pooled and frozen at −80° C. The proform was concentrated in an Amicon Centriprep 10 and fractionated with a Superdex 75 column (26 mm×600 mm, Pharmacia) equilibrated in 400 mM sodium chloride, 25 mM sodium acetate at pH 5.5.
Cathepsin K Activation: The proform of cathepsin K was converted to mature cathepsin K by brief exposure to pH 4 in the presence of 5 mM L-cysteine. Typically, 5 mM L-cysteine was added to 10 mL of approximately 1 mg/mL procathepsin K. One mL of this solution was diluted ten-fold into 450 mM sodium acetate at pH 4.0 containing 5 mM L-cysteine. This solution was reacted at 23° C. for 2 min before neutralization with 2 mL 1.8 M sodium acetate at pH 6.0. The neutralized sample was added to the remaining 9 mL of procathepsin K. The mixture was incubated at 4° C. for 2-3 days. The activated cathepsin K was chromatographed on a Poros HS II column as described above.
Potential inhibitors were evaluated using the progress curve method. Assays were carried out in the presence of variable concentrations of test compound. Reactions were initiated by addition of buffered solutions of inhibitor and substrate to enzyme. Data analysis was conducted according to one of two procedures depending on the appearance of the progress curves in the presence of inhibitors. […] Ki values were calculated from IC50 values using equation 2 assuming a competitive model. [formula]

SMILES	Ki [nM]
CCCC[C@H](NC(=O)O[C@H](CCc1nnc(-c2ccc(C(F)(F)F)cc2)o1)C(C)(C)C)C(=O)C(=O)Nc1ccn[nH]1 [Example 26, (1R)-2,2-dimethyl-1-(2-{5-[4-(trifluoromethyl)phenyl]-1,3,4-oxadiazol-2-yl}ethyl)propyl(1S)-1-[oxo(1H-pyrazol-5-ylamino)acetyl]pentylcarbamate]	0.01 to 1
CCCC[C@H](NC(=O)O[C@H](Cn1cnc2ccccc21)C(C)(C)C)C(=O)C(=O)Nc1ccn[nH]1 [Example 27, (1S)-1-(1H-benzimidazol-1-ylmethyl)-2,2-dimethylpropyl(1S)-1-[oxo(1H-pyrazol-5-ylamino)acetyl]pentylcarbamate]	0.01 to 1
CCCC[C@H](NC(=O)O[C@H](Cc1nnc(-c2ccc(C(F)(F)F)cc2)o1)C(C)(C)C)C(=O)C(=O)NN1CCOC1=O [Example 28, (1R)-2,2-dimethyl-1-({5-[4-(trifluoromethyl)phenyl]-1,3,4-oxadiazol-2-yl}methyl)propyl(1S)-1-{oxo[(2-oxo-1,3-oxazolidin-3-yl)amino]acetyl}pentyl carbamate]	0.01 to 1
CCCC[C@H](NC(=O)O[C@H](Cn1ccc(C(F)(F)F)n1)C(C)(C)C)C(=O)C(=O)Nc1ccn[nH]1 [Example 29, (1S)-2,2-dimethyl-1-{[3-(trifluoromethyl)-1H-pyrazol-1-yl]methyl}propyl(1S)-1-[oxo(1H-pyrazol-5-ylamino)acetyl]pentylcarbamate]	0.01 to 1
CCCC[C@H](NC(=O)O[C@H](Cn1nccc1-c1ccc(C(F)(F)F)cc1)C(C)(C)C)C(=O)C(=O)Nc1ccn[nH]1 [Example 30, (1S)-2,2-dimethyl-1-({5-[4-(trifluoromethyl)phenyl]-1H-pyrazol-1-yl}methyl)propyl(1S)-1-[oxo(1H-pyrazol-5-ylamino)acetyl]pentylcarbamate]	0.01 to 1
CCCC[C@H](NC(=O)O[C@H](c1nc2ccccc2s1)C(C)(C)C)C(=O)C(=O)Nc1ccn[nH]1 [Example 31, (1S)-1-(1,3-benzothiazol-2-yl)-2,2-dimethylpropyl(1S)-1-[oxo(1H-pyrazol-5-ylamino)acetyl]pentylcarbamate]	0.01 to 1
CCCC[C@H](NC(=O)O[C@@H](c1nc2ccccc2s1)C(C)(C)C)C(=O)C(=O)Nc1ccn[nH]1 [Example 32, (1R)-1-(1,3-benzothiazol-2-yl)-2,2-dimethylpropyl(1S)-1-[oxo(1H-pyrazol-5-ylamino)acetyl]pentylcarbamate]	100 to 10000
CCCC[C@H](NC(=O)O[C@H](Cn1ccc(-c2cccnc2)n1)C(C)(C)C)C(=O)C(=O)Nc1nccs1 [Example 33, (1S)-2,2-dimethyl-1-{[3-(3-pyridinyl)-1H-pyrazol-1-yl]methyl}propyl(1S)-1-[oxo(1,3-thiazol-2-ylamino)acetyl]pentylcarbamate]	0.01 to 1
CCCC[C@H](NC(=O)O[C@H](Cn1cnc(Cc2ccccc2)c1)C(C)(C)C)C(=O)C(=O)Nc1ccn[nH]1 [Example 34, (1S)-1-[(4-benzyl-1H-imidazol-1-yl)methyl]-2,2-dimethylpropyl(1S)-1-[oxo(1H-pyrazol-5-ylamino)acetyl]pentylcarbamate]	0.01 to 1
CCCC[C@H](NC(=O)O[C@H](Cn1ccc(-c2ccc(C(F)(F)F)cc2)n1)C(C)(C)C)C(=O)C(=O)NCc1ccno1 [Example 36, (1S)-2,2-dimethyl-1-({3-[4-(trifluoromethyl)phenyl]-1H-pyrazol-1-yl}methyl)propyl(1S)-1-[[(5-isoxazolylmethyl)amino](oxo)acetyl]pentylcarbamate]	1 to 100
CCCC[C@H](NC(=O)O[C@@H](c1nnc(-c2ccc(C(F)(F)F)cc2)o1)C(C)(C)C)C(=O)C(=O)Nc1ccn[nH]1 [Example 40, (1R)-2,2-dimethyl-1-{5-[4-(trifluoromethyl)phenyl]-1,3,4-oxadiazol-2-yl}propyl(1S)-1-[oxo(1H-pyrazol-5-ylamino)acetyl]pentylcarbamate]	100 to 10000
CCCC[C@H](NC(=O)O[C@@H](c1cccc(-c2ccccc2)c1)C(C)(C)C)C(=O)C(=O)Nc1ccn[nH]1 [Example 41, (1R)-1-[1,1′-biphenyl]-3-yl-2,2-dimethylpropyl(1S)-1-[oxo(1H-pyrazol-5-ylamino)acetyl]pentylcarbamate]	100 to 10000
CCCC[C@H](NC(=O)O[C@H](c1cccc(-c2ccccc2)c1)C(C)(C)C)C(=O)C(=O)Nc1ccn[nH]1 [Example 42, (1S)-1-[1,1′-biphenyl]-3-yl-2,2-dimethylpropyl(1S)-1-[oxo(1H-pyrazol-5-ylamino)acetyl]pentylcarbamate]	0.01 to 1
CCCC[C@H](NC(=O)O[C@@H](c1nc2c(OCC)ccc(OCC)c2n1C)C(C)(C)C)C(=O)C(=O)Nc1ccn[nH]1 [Example 43]	100 to 10000
CCCC[C@H](NC(=O)O[C@H](Cn1ccc(-c2cccnc2)n1)C(C)(C)C)C(=O)C(=O)Nc1ccn[nH]1 [Example 44, (1S)-2,2-dimethyl-1-{[3-(3-pyridinyl)-1H-pyrazol-1-yl]methyl}propyl (1S)-1-[oxo(1H-pyrazol-5-ylamino)acetyl]pentylcarbamate]	0.01 to 1
CCCC[C@H](NC(=O)O[C@H](Cn1ccc(-c2ccncc2)n1)C(C)(C)C)C(=O)C(=O)Nc1ccn[nH]1 [Example 45, (1S)-2,2-dimethyl-1-{[3-(4-pyridinyl)-1H-pyrazol-1-yl]methyl}propyl(1S)-1-[oxo(1H-pyrazol-5-ylamino)acetyl]pentylcarbamate]	0.01 to 1
CCCC[C@H](NC(=O)O[C@H](Cn1ccc(-c2ccc(C(F)(F)F)cc2)n1)C(C)(C)C)C(=O)C(=O)Nc1nccs1 [Example 46, (1S)-2,2-dimethyl-1-({3-[4-(trifluoromethyl)phenyl]-1H-pyrazol-1-yl}methyl)propyl(1S)-1-[oxo(1,3-thiazol-2-ylamino)acetyl]pentylcarbamate]	0.01 to 1
CCCC[C@H](NC(=O)O[C@H](COc1ccc(OCc2ccccc2)cc1)C(C)(C)C)C(=O)C(=O)Nc1ccn[nH]1 [Example 47, (1S)-1-{[4-(benzyloxy)phenoxy]methyl}-2,2-dimethylpropyl(1S)-1-[oxo(1H-pyrazol-5-ylamino)acetyl]pentylcarbamate]	0.01 to 1
CCCC[C@H](NC(=O)O[C@H](COc1ccc(C(N)=O)cc1)C(C)(C)C)C(=O)C(=O)Nc1ccn[nH]1 [Example 48, (1S)-1-{[4-(aminocarbonyl)phenoxy]methyl}-2,2-dimethylpropyl(1S)-1-[oxo(1H-pyrazol-5-ylamino)acetyl]pentylcarbamate]	0.01 to 1
CCCC[C@H](NC(=O)O[C@H](COc1ccc(-n2ccnc2)cc1)C(C)(C)C)C(=O)C(=O)Nc1ccn[nH]1 [Example 49, (1S)-1-{[4-(1H-imidazol-1-yl)phenoxy]methyl}-2,2-dimethylpropyl(1S)-1-[oxo(1H-pyrazol-5-ylamino)acetyl]pentylcarbamate]	0.01 to 1
CCCC[C@H](NC(=O)O[C@H](Cn1cnc(-c2cc(C(F)(F)F)cc(C(F)(F)F)c2)c1)C(C)(C)C)C(=O)C(=O)Nc1ccn[nH]1 [Example 50, (1S)-1-({4-[3,5-bis(trifluoromethyl)phenyl]-1H-imidazol-1-yl}methyl)-2,2-dimethylpropyl(1S)-1-[oxo(1H-pyrazol-5-ylamino)acetyl]pentylcarbamate]	0.01 to 1
